Data reported in patent US7256202B2, “Composition and method for treatment of hepatic encephalopathy” (priority 2003, dated 2007).

System: patient with hepatic encephalopathy
Assay: Case report: patient with cryptogenic cirrhosis and hepatic encephalopathy treated with lactulose, then PEG 3350/lactulose
Format: in vivo, human
From the text: The patient is a person with cryptogenic cirrhosis, a type of cirrhosis which has unknown etiology. They have had extensive workups for chronic anemia in one of the major California hospitals and was placed on neomycin, Lasix, iron sulfate, lactulose, and Prevacid; they also were on a restricted protein diet to reduce ammonia production. They had intermittent episodes of hepatic encephalopathy during their hospitalization. The patient's hemoglobin slowly drops and they require transfusions periodically because of portal gastropathy. […] Although the therapeutic range is three to four bowel movements per day, it is very difficult for them to get to that range because of these effects.
The patient has required several hospitalizations for lethargy, declines in hemoglobin, and hepatic encephalopathy. They have intermittent episodes of abdominal discomfort and mild irritation of various small bowel loops.
The platelet count is in the range of 57,000. The lowest level of ammonia has been 30 micromoles/L and several levels have been 80 to 90 micromoles/L with the patient taking the lactulose.
The patient has had three hospitalizations for hepatic encephalopathy and anemia, mostly resulting from poor compliance. The patient's last hospitalization was July 22nd. Four months later, the patient presented us with hepatic encephalopathy and bedsores.
They were switched to 17 g MiraLax® (PEG 3350 powder) combined with 10 g of lactulose dissolved in water and given twice a day. The patient's ammonia level is now in the 70 to 75-range of micromoles/L and holding fairly steady on a maintenance dosage of this composition once per day.
They have achieved clinical and therapeutic levels of ammonia levels, and is oriented to time and place, with no clinical signs of hepatic encephalopathy on physical examination.

[1] = lactulose up to three to four times a day

SMILES: OC[C@H]1O[C@@H](O[C@@H]2[C@@H](CO)OC(O)(CO)[C@H]2O)[C@H](O)[C@@H](O)[C@H]1O (mixture of isomers) [lactulose]
- bowel movements per day [1]: three to four to five
- side effects with the drug [1]: nausea, abdominal discomfort, and bloating sensation
- lowest level of ammonia (patient taking the lactulose): 30 µmol/L
